≈ marks a conversion by molar mass, not a printed value. Like-named read-outs stand apart in the source and are kept apart here.
Columns and labels:
[1] = system: L1210 mouse leukemia carcinoma cells; experiment: cytotoxicity / inhibition of cell proliferation in L1210 leukemia cells in culture; format: cell-based; details: drug concentration required to inhibit cell proliferation to 50% of that of untreated control cells; for IC50: Mus musculus, L1210, read-out: L1210 (IC50 ug/ml)
From the text: (§1) The biological activity of the 7-deoxy-7-ether-taxol compounds (Formula I) of the invention has been confirmed using well known procedures.
The biological activity of the compounds of this invention has been further confirmed using well known procedures against L1210 leukemia and the results set forth in Table I. The results were obtained using standard well known procedure (Li, L.H.; Kuentzel, S.L.; Murch, L.L.; Pschigoga, L.M.; and W.C. Krueger, "Comparative biological and biochemical effects of nogalamycin and its analogs on L1210 leukemia," Cancer Res. 39:4816-4822 (1979)). The results are expressed as an IC50 which is the drug concentration required to inhibit cell proliferation to 50% of that of untreated control cells. Lower numbers indicated greater activity.

[2] = system: A2780 human ovarian carcinoma; experiment: activity against A2780 human ovarian carcinoma cells; format: cell-based; details: for IC50: read-out: A2780 (IC50 ug/ml)
From the text: The biological activity of the compounds of this invention has been further confirmed using well known procedures against A2780 human ovarian carcinoma and the results set forth in Table II. The results were obtained using standard well known procedure (Perez, R. P.; O'Dwyer, P. J.; Handel, L. M.; Ozols, R. F.; Hamilton, T. C. Int. J. Cancer 1991, 48, 265, Alley, M.C.; Scudiero, D. A.; Monks, A.; Hursey, M. L; Czerwinski, M. J.; Fine, D. L.; et al. Cancer Res 1988, 48, 589).

tubulin = experiment: in vitro tubulin polymerization assay (after Gaskin et al.); format: biochemical; details: in vitro at 20°C, compared with taxol
From the text: as §1

[3] = system: L1210 mouse leukemia carcinoma cells; experiment: cytotoxicity / inhibition of cell proliferation in L1210 leukemia cells in culture; format: cell-based

Molecule: 7-[O-(2,2,2-trichloroethoxy)methoxymethyl]-13-(N-Boc-β-phenyl isoserinyl)-baccatin III [Compound 22]
- L1210 (IC50 ug/ml) [1]: 0.0047 µg/mL

Molecule: 7-[O-(2,2,2-trichloroethoxy)methyl]-13-(N-Boc-β-phenyl isoserinyl)-baccatin III [Compound 21]
- L1210 (IC50 ug/ml) [1]: 0.0024 µg/mL

Molecule: 13-(N-Boc-2'-TES-b-phenyl isoserinyl)-baccatin III 7-O-methyl ether [Compound 58]
- A2780 (IC50 ug/ml) [2]: 0.00038 µg/mL

Molecule: CCOCOC1CC2OCC2(OC(C)=O)C2C(OC(=O)c3ccccc3)C3(O)CC(OC(=O)C(O)C(NC(=O)OC(C)(C)C)c4ccccc4)C(C)=C(C(OC(C)=O)C(=O)C12C)C3(C)C (stereo not drawn) [Compound 4, 7-(O-ethoxymethyl)-13-(N-Boc-β-phenylisoserinyl)-baccatin III]
- induce tubulin polymerization in vitro (tubulin): able to induce tubulin polymerization in vitro at 20 °C in a manner very similar to taxol
- A2780 (IC50 ug/ml) [2]: 0.0007 µg/mL

Molecule: COCCOCOC1CC2OCC2(OC(C)=O)C2C(OC(=O)c3ccccc3)C3(O)CC(OC(=O)C(O)C(NC(=O)OC(C)(C)C)c4ccccc4)C(C)=C(C(OC(C)=O)C(=O)C12C)C3(C)C (stereo not drawn) [Compound 6, 7-(O-methoxyethoxymethyl)-13-(N-Boc-β-phenylisoserinyl)-baccatin III]
- L1210 (IC50 ug/ml) [1]: 0.0023 µg/mL

Molecule: COCOC1CC2OCC2(OC(C)=O)C2C(OC(=O)c3ccccc3)C3(O)CC(OC(=O)C(O)C(NC(=O)OC(C)(C)C)c4ccccc4)C(C)=C(C(OC(C)=O)C(=O)C12C)C3(C)C (stereo not drawn) [Compound 8, 7-(O-methoxymethyl)-13-(N-Boc-2'-β-phenylisoserinyl)-baccatin III]
- L1210 (IC50 ug/ml) [1]: 0.0011 µg/mL
- IC90 (90% growth inhibitory concentration) [3]: 0.0011 micrograms/ml

Molecule: CC(=O)OC1C(=O)C2(C)C(OCOCc3ccccc3)CC3OCC3(OC(C)=O)C2C(OC(=O)c2ccccc2)C2(O)CC(OC(=O)C(O)C(NC(=O)OC(C)(C)C)c3ccccc3)C(C)=C1C2(C)C (stereo not drawn) [Compound 10, 7-(O-benzyloxymethyl)-13-(N-Boc-β-phenylisoserinyl)-baccatin III]
- L1210 (IC50 ug/ml) [1]: 0.001 µg/mL

Molecule: CCOCOC1CC2OCC2(OC(C)=O)C2C(OC(=O)c3ccccc3)C3(O)CC(OC(=O)C(O)C(NC(=O)NC(C)(C)C)c4ccccc4)C(C)=C(C(OC(C)=O)C(=O)C12C)C3(C)C (stereo not drawn) [Compound 14, 7-(O-ethoxymethyl)-13-(N-(t-butylaminocarbonyl)-β-phenylisoserinyl)-baccatin III]
- L1210 (IC50 ug/ml) [1]: 0.0014 µg/mL
- A2780 (IC50 ug/ml) [2]: 0.00007 µg/mL

Molecule: COCOC1CC2OCC2(OC(C)=O)C2C(OC(=O)c3ccccc3)C3(O)CC(OC(=O)C(O)C(NC(=O)NC(C)(C)C)c4ccccc4)C(C)=C(C(OC(C)=O)C(=O)C12C)C3(C)C (stereo not drawn) [Compound 27, 7-(O-methoxymethyl)-13-(N-(t-butylaminocarbonyl)-β-phenylisoserinyl)-baccatin III]
- induce tubulin polymerization in vitro (tubulin): able to induce tubulin polymerization in vitro at 20 °C in a manner very similar to taxol
- A2780 (IC50 ug/ml) [2]: 0.00004 µg/mL

Molecule: CSCOC1CC2OCC2(OC(C)=O)C2C(OC(=O)c3ccccc3)C3(O)CC(OC(=O)C(O)C(NC(=O)c4ccccc4)c4ccccc4)C(C)=C(C(OC(C)=O)C(=O)C12C)C3(C)C (centres unmarked) [Compound 42, 7-(O-methylthiomethyl) taxol]
- A2780 (IC50 ug/ml) [2]: 0.00047 µg/mL

Molecule: CSCOC1CC2OCC2(OC(C)=O)C2C(OC(=O)c3ccccc3)C3(O)CC(OC(=O)C(O)C(NC(=O)OC(C)(C)C)c4ccccc4)C(C)=C(C(OC(C)=O)C(=O)C12C)C3(C)C (stereo not drawn) [Compound 44, 7-(O-methylthiomethyl)-13-(N-Boc-β-phenylisoserinyl)-baccatin III]
- A2780 (IC50 ug/ml) [2]: 0.00037 µg/mL

Molecule: CC(=O)OC1C(=O)C2(C)C(OCSc3ccccc3)CC3OCC3(OC(C)=O)C2C(OC(=O)c2ccccc2)C2(O)CC(OC(=O)C(O)C(NC(=O)c3ccccc3)c3ccccc3)C(C)=C1C2(C)C (centres unmarked) [Compound 46, 7-(O-phenylthiomethyl) taxol]
- A2780 (IC50 ug/ml) [2]: 0.0016 µg/mL

Molecule: COC1CC2OCC2(OC(C)=O)C2C(OC(=O)c3ccccc3)C3(O)CC(OC(=O)C(O)C(NC(=O)c4ccccc4)c4ccccc4)C(C)=C(C(OC(C)=O)C(=O)C12C)C3(C)C (centres unmarked) [Compound 47, 7-O-methyl Taxol]
- A2780 (IC50 ug/ml) [2]: 0.0007 µg/mL
- A2780 (IC50 ug/ml) ([2]; retest): 0.00044 µg/mL

Molecule: CCSC(C)OC1CC2OCC2(OC(C)=O)C2C(OC(=O)c3ccccc3)C3(O)CC(OC(=O)C(O)C(NC(=O)c4ccccc4)c4ccccc4)C(C)=C(C(OC(C)=O)C(=O)C12C)C3(C)C (centres unmarked) [Compound 49, 7-[O-ethyl(1-thioethyl)] Taxol]
- A2780 (IC50 ug/ml) [2]: 0.0057 µg/mL

Molecule: CSCOC1CC2OCC2(OC(C)=O)C2C(OC(=O)c3ccccc3)C3(O)CC(OC(=O)C(O)C(NC(=O)NC(C)(C)C)c4ccccc4)C(C)=C(C(OC(C)=O)C(=O)C12C)C3(C)C (centres unmarked) [Compound 55, 13-(N-(t-butylaminocarbonyl)-b-phenylisoserinyl)-baccatin III 7-O-methylthiomethyl ether]
- A2780 (IC50 ug/ml) [2]: 0.00025 µg/mL

Molecule: COC1CC2OCC2(OC(C)=O)C2C(OC(=O)c3ccccc3)C3(O)CC(OC(=O)C(O)C(NC(=O)NC(C)(C)C)c4ccccc4)C(C)=C(C(OC(C)=O)C(=O)C12C)C3(C)C (centres unmarked) [Compound 56, 13-(N-(t-butylaminocarbonyl)-b-phenylisoserinyl)-baccatin III 7-O-methyl ether]
- A2780 (IC50 ug/ml) [2]: 0.00034 µg/mL

Molecule: CC(=O)O[C@H]1C(=O)[C@@]2(C)[C@H]([C@H](OC(=O)c3ccccc3)[C@]3(O)C[C@H](OC(=O)[C@H](O)[C@@H](NC(=O)c4ccccc4)c4ccccc4)C(C)=C1C3(C)C)[C@]1(OC(C)=O)CO[C@@H]1C[C@@H]2O [taxol, Taxol]
- IC50 [1]: 0.017 µg/mL (≈ 19.9 nM)
- IC50 [2]: 0.0018 µg/mL (≈ 2.11 nM)
- IC90 ([3]; read-out: IC90 (90% growth inhibitory concentration)): 17 ng/mL (≈ 19.9 nM)

Molecule: CC(=O)O[C@@]12CO[C@@H]1C[C@H](O)[C@@]1(C)C(=O)[C@H](O)C3=C(C)[C@@H](OC(=O)[C@H](O)[C@@H](NC(=O)OC(C)(C)C)c4ccccc4)C[C@@](O)([C@@H](OC(=O)c4ccccc4)[C@H]21)C3(C)C [taxotere, reference compound]
- IC50 [1]: 0.004 µg/mL (≈ 4.95 nM)
- IC50 [2]: 0.0007 µg/mL (≈ 0.866 nM)

Reference: patent EP0767786B1, “7-ETHER-TAXOL ANALOGS, ANTINEOPLASTIC USE AND PHARMACEUTICAL COMPOSITIONS CONTAINING THEM” (PHARMACIA & UPJOHN COMPANY, priority 1994, dated 1996)
